This is an account of results in patent US20190055267A1, “ORGANOTRIFLUOROBORATE MIMICS OF AMINO ACIDS AND USES THEREOF” (The United States of America, as represented by the …, priority 2015, published 2019).

The test system of one data set is inflammatory lesion. The data set can be described thus: PET imaging in the acute inflammation model. The data set is classed as in vivo, mice. The conditions noted are these: compared with 18F-FDG (FIGS. 26-28). The method, then: (§1) All imaging studies were performed as follows. PET scans were obtained and image analysis were performed using an Inveon small-animal PET scanner (Malvern, Pa., USA). About 3.7 MBq of ^18F-AA were administered via tail vein injection under isoflurane anesthesia. For static acquisition, 10-min static PET scans were acquired at 30, 60 and 120 min after injection. For dynamic acquisition, 60 min dynamic PET scans were acquired, followed by a late-time-point scans at 2 h after tracer injection. With the acute inflammation model, 10-min static PET images were acquired at 1 h and 2 h after injection. The images were reconstructed using a 3-dimensional ordered subset expectation maximum algorithm, and no correction was applied for attenuation or scatter. For each scan, regions of interest (ROIs) were drawn using vendor software (ASI Pro 5.2.4.0; Siemens Medical Solutions) on decay-corrected whole-body coronal images. The radioactivity concentrations (accumulation) within the tumor, heart, muscle, liver, brain, and kidneys were obtained from mean pixel values within the multiple ROI volumes and then converted to megabecquerel per milliliter. These values were then divided by the administered activity to obtain (assuming a tissue density of 1 g/mL) an image-ROI-derived percentage injected dose per gram (% ID/g).

The nature of data set [1]: Metabolic stability in mouse plasma, HPLC analysis. To be noted: mouse plasma at 37° C. for 30 and 120 min. The data set is classed as in vitro ADME. Here is the method: To further evaluate the metabolic stability of boramino acid, ^18F-Leu-BF3 was incubated with mouse plasma at 37° C. for 30 and 120 min. After incubation, most of the radioactivity was extracted from the plasma and followed by HPLC analysis.

Data set [2] has as its system UM22B xenografts. Briefly: ICP analysis of boron in tissues after injection. The data set is classed as in vivo, mice. To be noted: 60 min after injection of 10 mg. The method, then: Tumor-bearing mice were sacrificed at 60 min after injection of 10 mg of Leu-BF3. UM22B xenografts are dissolve into nitric acid and the resulting solution are analyzed by ICP.
A short description of data set [3]: In vivo metabolic stability, HPLC analysis of urine and blood samples. To be noted: living animals. Here is the method: To further evaluate its in vivo metabolic stability, ^18F-Leu-BF3 was also tested in living animals and followed by HPLC analysis of urine and blood samples.
The test system of another data set is UM22B cells. Briefly: Efflux of radioactivity from cells preloaded with 18F-Leu-BF3. The data set is classed as cell-based. To be noted: UM22B cells loaded 120 min, 120 min post medium incubation. The method, then:
^18F-Leu-BF3 was first incubated with UM22B cells in PBS (phosphate buffered saline) for 120 min then was removed, followed by rapidly rinsing the cells with PBS three times. The cancer cells were incubated in medium essential medium for 10, 30, 60, and 120 min, and the residual radioactivity was measured (FIG. 16). The decreasing residual radioactivity is time-dependent, and most of the radioactive boramino acid was excreted from the cell in 90 min (less than 2% left at 120 min post medium incubation).
The radioactivity from efflux was further analyzed by re-injection into HPLC at 120 min (efflux: excreted from cell; influx: accumulated into cell). Only one peak was observed, and the elution time was corroborative to that for ^18F-Leu-BF3. The elution time here was 15 min, whereas in FIG. 1 the time was 12.5 min. After the data of FIG. 1 was obtained, maintenance was performed on the HPLC, after which the elution time of ^18F-Leu-BF3 on the HPLC was 15 min.

The test system of another data set is UM22B xenograft. The data set can be described thus: PET imaging and biodistribution in UM22B tumor-bearing mice. The data set is classed as in vivo. The method, then: as §1, with “For static acquisition, 10-min static PET scans were acquired at 30, 60 and 120 min after injection.” left out
A further data set has as its system U87MG human glioma cells. In kind it is cell-based.
Data set [4] relates to UM22B xenografts. The data set can be described thus: PET imaging of 18F-Leu-BF3 co-injected with unlabeled Leu-BF3 (BNCT boron delivery). In kind it is in vivo, mice. Here is the method: as §1, with “ID/g). […]” for “ID/g).”
For the next data set, the system named is HEK293 cells. The data set can be described thus: Cell uptake of 18F-Leu-BF3 in HEK293 cells. The conditions noted are these: 120 min post incubation. In kind it is cell-based.
Where [5] appears, read: UM22B-bearing mice, 120 min after injection.

For the compound `CC(C)C[C@H]([NH3+])[B-](F)(F)[18F]` [^18F-Leu-BF3], in the data set on inflammatory lesion, the “uptake in inflammatory lesion” value is recorded as “almost negligible”. Moreover, in [1], the “defluoridation from boramino acid to boronic acid” value is given as “almost negligible”. In the data set with UM22B xenografts [2] (ICP analysis), this compound gave a boron in tumor of 34.5 ppm. For the same compound, in the data set on UM22B xenografts [2] (boron by ICP analysis), the tumor-to-brain ratio stood at 13.5. For the same compound, in data set [3], the “in vivo metabolic stability” value is “neither participates in protein synthesis nor loses fluoride during in vivo circulation”. In addition, in the data set on UM22B cells, the “residual radioactivity left in cells” value is given as “less than 2%”. In the data set with UM22B xenograft (PET, tumor-bearing mice), the bone uptake entry was “undetectable”. Besides, in the data set with UM22B xenograft (setting [5]), the “Average Uptake (% ID/g), blood pool” value came to 0.47 ± 0.12 % ID/g; the “Average Uptake (% ID/g), hottest voxel cluster of tumor” value amounted to 12.46 ± 3.0 % ID/g; the “Average Uptake (% ID/g), kidney” value was found to be 2.32 ± 0.39 % ID/g; the “Average Uptake (% ID/g), liver” value stood at 0.83 ± 0.16 % ID/g. Further, in the data set with UM22B xenograft (setting [5]), the “Average Uptake (% ID/g), muscle” value worked out at 0.09 ± 0.03 % ID/g and the “Average Uptake (% ID/g), whole tumor region of interest” value is listed as 6.72 ± 0.91 % ID/g. The “tumor uptake, peak voxel cluster value” in the data set on UM22B xenograft (comparison of 11C-Leu and 18F-Leu-BF3, one particular mouse (FIGS. 24 and 25)) was around 6.5 % ID/g. For the same compound, the “tumor uptake, peak voxel cluster value” in the data set with UM22B xenograft (time-activity curves, UM22B tumor-bearing mice (FIGS. 21 and 22)) was around 13 % ID/g. Also, the cell uptake in the data set with U87MG human glioma cells is around 7.5 % AD. In the data set on UM22B xenografts [4] (60 min after injection of <1 μg, 200 μg, 1 mg, 5 mg and 25 mg, by PET imaging), this compound came in with a tumor uptake of around 10 % ID/g. Also, the “boron concentration in tumor” value in the data set with UM22B xenografts [4] (60 min post-injection, based on calculation) was “up to 30 ppm”. Further, the cell uptake in the data set with HEK293 cells is 10.4 % AD.
